{"source": "patent US20170037091A1", "about": "“STY PEPTIDES FOR INHIBITION OF ANGIOGENESIS” (RESEARCH DEVELOPMENT FOUNDATION, priority 2014, published 2017)", "key": {"[1]": {"test_system": "secreted VEGF, ocular melanoma cell line 270", "assay": "VEGF ELISA of culture media, Mel 270 cells", "type": "cell-based, human", "conditions": "30 mg/100 mL, three days", "experimental": "(§1) A 26 amino acid sequence corresponding to a Ser-Thr-Tyr domain within RTEF-1 (FIG. 1), linked to a 10 amino acid cell importation signal (RMR) was synthesized (GenScript NJ). Human ocular melanoma cells (Mel 270, Mel 202), retinoblastoma cells (Y79; ATTC, MD), primate ocular endothelial retina/choroid ocular endothelial cells (RF/6A; ATCC, MD), human retinal pigment epithelial cells (ARPE19; ATCC, MD), and the CRL 1500 breast cancer cell line (ATCC, MD) were plated into 96 well plates and cultured for 24 h. Recombinant STY-RMR peptide was added to the cell culture media at various concentrations (10 to 30 mg/100 mL).\n(§2) The amount of VEGF within the media was determined by VEGF ELISA (R&D Systems, MN, USA) and compared between STY-RMR treated and controls (N=3)."}, "[2]": {"test_system": "human retinal pigment epithelial cells (ARPE19)", "assay": "XTT cell proliferation assay, ARPE-19 cells", "type": "cell-based", "conditions": "30 mg/100 mL, XTT at 72 h", "experimental": "as §1\n(§3) Cell proliferation was assessed at 72 h using a colorimetric XTT assay (Roche Diagnostics, Indianpolis, Conn., USA). Cell proliferation was expressed as a percentage and compared with untreated control cell growth (N=3)."}, "[3]": {"test_system": "secreted VEGF, ocular retinal-choroidal derived vascular endothelial cells (RF/6A)", "assay": "VEGF ELISA of culture media, RF/6A cells", "type": "cell-based, primate", "conditions": "30 mg/100 mL, three days", "experimental": "as §1, §2"}, "[4]": {"test_system": "CRL 1500 breast cancer cell line", "assay": "XTT cell proliferation assay, CRL 1500 breast cancer cells", "type": "cell-based, human", "experimental": "as §1, with “Recombinant STY-RMR peptide was added to the cell culture media at various concentrations (10 to 30 mg/100 mL).” left out\nas §3"}, "[5]": {"test_system": "Human ocular melanoma cells (Mel 270)", "assay": "XTT cell proliferation assay, Mel 270 ocular melanoma cells", "type": "cell-based", "conditions": "30 mg/100 mL, XTT at 72 h", "experimental": "as §1, §3"}, "[6]": {"test_system": "Human ocular melanoma cells (Mel 202)", "assay": "XTT cell proliferation assay, Mel 202 ocular melanoma cells", "type": "cell-based", "conditions": "30 mg/100 mL, XTT at 72 h, N=3", "experimental": "as §1, §3"}, "[7]": {"test_system": "secreted VEGF in the media of all tested cell lines", "assay": "VEGF ELISA of culture media, all tested cell lines (summary statement)", "type": "cell-based", "conditions": "all tested cell lines exposed to STY-RMR", "experimental": "as §1, §2"}, "[8]": {"test_system": "primate ocular endothelial retina/choroid ocular endothelial cells (RF/6A)", "assay": "XTT cell proliferation assay, RF/6A ocular endothelial cells", "type": "cell-based", "conditions": "30 mg/100 mL, XTT at 72 h", "experimental": "as §1, §3"}, "[9]": {"test_system": "secreted VEGF, breast cancer cells (CRL 1500)", "assay": "VEGF ELISA of culture media, CRL 1500 breast cancer cells", "type": "cell-based, human", "conditions": "0.1 μg/100 μL, three days", "experimental": "as §1, with “Recombinant STY-RMR peptide was added to the cell culture media at various concentrations (10 to 30 mg/100 mL).” left out\nas §2"}, "[10]": {"test_system": "secreted VEGF, ARPE19 cells", "assay": "VEGF ELISA of culture media, ARPE19 cells", "type": "cell-based, human", "conditions": "30 mg/100 mL, three days", "experimental": "as §1, §2"}}, "data": [{"substance": "STY-RMR: 26 amino acid STY domain of RTEF-1 linked to 10 amino acid RMR cell importation signal; 36 amino acids (SEQ ID NO:2) (SSFYGVSSQYESPENMIITCSTKVCSRMRRMRRMRR)", "values": [{"measurement": "reduction in secreted VEGF levels, ocular melanoma cell line 270 (ELISA)", "setting": "[1]", "value": 81, "unit": "%"}, {"measurement": "inhibition of ARPE-19 retinal pigment epithelial cell proliferation", "setting": "[2]", "value": 75, "unit": "%"}, {"measurement": "reduction of secreted VEGF, RF/6A ocular vascular endothelial cells (ELISA)", "setting": "[3]", "value": 80, "unit": "%"}, {"measurement": "inhibition of breast cancer cell (CRL 1500) proliferation", "setting": "[4]; 0.1 μg/100 μL twice a day for three days", "value": 9, "unit": "%"}, {"measurement": "inhibition of breast cancer cell (CRL 1500) proliferation", "setting": "[4]; 0.2 μg/100 μL twice a day for three days", "value": 27, "unit": "%"}, {"measurement": "inhibition of breast cancer cell (CRL 1500) proliferation", "setting": "[4]; 0.5 μg/100 μL twice a day for three days", "value": 27, "unit": "%"}, {"measurement": "inhibition of breast cancer cell (CRL 1500) proliferation", "setting": "[4]; 1 μg/100 μL twice a day for three days", "value": 27, "unit": "%"}, {"measurement": "inhibition of breast cancer cell (CRL 1500) proliferation", "setting": "[4]; 5 μg/100 μL twice a day for three days", "value": 50, "unit": "%"}, {"measurement": "inhibition of breast cancer cell (CRL 1500) proliferation", "setting": "[4]; 6 μg/100 μL twice a day for three days", "value": 50, "unit": "%"}, {"measurement": "inhibition of Mel270 ocular melanoma cell proliferation below control", "setting": "[5]", "value": 60, "unit": "%"}, {"measurement": "inhibition of Mel 202 ocular melanoma cell proliferation", "setting": "[6]", "value": 87, "unit": "%"}, {"measurement": "secreted VEGF in the media, result in words", "setting": "[7]", "value": "decreased"}, {"measurement": "inhibition of RF/6A ocular endothelial cell proliferation", "setting": "[8]", "value": 42, "unit": "%"}, {"measurement": "decrease of VEGF levels in breast tumor cells (ELISA)", "setting": "[9]", "value": 78, "unit": "%"}, {"measurement": "reduction of VEGF levels compared to control, ARPE19 cells (ELISA)", "setting": "[10]", "value": 88, "unit": "%"}]}]}
